pEC50, pIC50: −log10 of the molar value.

The target of assay [1] is Melanocortin receptor 5 (Homo sapiens, UniProt P33032). The assay is described as follows: Displacement of [125I]NDP-MSH from Melanocortin 5 receptor at 10 uM. Background: Displacement assays read how much labelled ligand stays bound in the presence of the test substance.
The test system of assay [2] is MCR. Kind of assay: Effective concentration was measured against frog skin MCR cells at 10 e-4 10 e-12 M Concentration. Particulars: Anura. The assay is classed as functional, cell-based.
For assay [3], the target named is Melanocortin receptor 3 (Homo sapiens, UniProt P41968). Kind of assay: Displacement of [125I]NDP-MSH from Melanocortin 3 receptor at 10 uM.
For assay [4], the target named is T1, Melanocyte-stimulating hormone receptor (Homo sapiens, UniProt Q01726). Kind of assay: Displacement of [125I]NDP-MSH from Melanocortin 1 receptor at 10 uM.
Assay [5] concerns the target T1, Melanocyte-stimulating hormone receptor. The assay is described as follows: effective concentration of peptide at 50% maximal cAMP accumulation on Melanocortin 1 receptor. The assay is classed as functional. A general note: cAMP levels reflect the balance of adenylyl cyclase and phosphodiesterase activity.
Assay [6] has as its target Melanocortin receptor 4 (Homo sapiens, UniProt P32245). Kind of assay: Displacement of [125I]NDP-MSH from Melanocortin 4 receptor at 10 uM.
The subject of assay [7] is MCR. Kind of assay: Effective concentration was measured against frog skin(MCR) cells at 10 e-4 10 e-12 M Concentration. It is filed as functional, cell-based. Particulars: Anura.

Sequence of Melanocortin receptor 5 (P33032 whole entry): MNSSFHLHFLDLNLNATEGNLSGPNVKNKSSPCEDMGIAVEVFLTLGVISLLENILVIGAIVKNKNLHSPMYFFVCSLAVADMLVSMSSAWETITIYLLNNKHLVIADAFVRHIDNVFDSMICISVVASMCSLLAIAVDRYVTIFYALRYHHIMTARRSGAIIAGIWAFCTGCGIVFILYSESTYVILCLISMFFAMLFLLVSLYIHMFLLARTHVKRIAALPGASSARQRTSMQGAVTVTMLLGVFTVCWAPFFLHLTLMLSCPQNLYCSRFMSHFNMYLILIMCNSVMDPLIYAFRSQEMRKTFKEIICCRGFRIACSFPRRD
Sequence of Melanocortin receptor 4 (P32245 whole entry): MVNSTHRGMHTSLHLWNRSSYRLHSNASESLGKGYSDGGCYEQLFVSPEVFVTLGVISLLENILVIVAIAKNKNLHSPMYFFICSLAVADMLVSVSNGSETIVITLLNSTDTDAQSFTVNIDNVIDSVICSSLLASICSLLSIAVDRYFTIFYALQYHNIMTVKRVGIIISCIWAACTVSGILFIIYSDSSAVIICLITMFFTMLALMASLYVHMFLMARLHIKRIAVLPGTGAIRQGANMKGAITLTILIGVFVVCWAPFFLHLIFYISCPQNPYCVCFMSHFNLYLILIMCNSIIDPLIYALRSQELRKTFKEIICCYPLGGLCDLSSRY
Sequence of Melanocortin receptor 3 (P41968 whole entry): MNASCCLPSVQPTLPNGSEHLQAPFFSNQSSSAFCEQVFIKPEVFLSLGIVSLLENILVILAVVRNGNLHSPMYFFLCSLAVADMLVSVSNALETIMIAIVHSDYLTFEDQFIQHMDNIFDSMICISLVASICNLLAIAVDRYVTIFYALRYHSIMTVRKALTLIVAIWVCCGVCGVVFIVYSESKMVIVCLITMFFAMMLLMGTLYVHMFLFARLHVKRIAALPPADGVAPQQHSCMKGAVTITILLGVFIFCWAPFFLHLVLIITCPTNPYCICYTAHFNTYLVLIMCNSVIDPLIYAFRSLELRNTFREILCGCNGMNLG
T1 sequence (Q01726 whole entry): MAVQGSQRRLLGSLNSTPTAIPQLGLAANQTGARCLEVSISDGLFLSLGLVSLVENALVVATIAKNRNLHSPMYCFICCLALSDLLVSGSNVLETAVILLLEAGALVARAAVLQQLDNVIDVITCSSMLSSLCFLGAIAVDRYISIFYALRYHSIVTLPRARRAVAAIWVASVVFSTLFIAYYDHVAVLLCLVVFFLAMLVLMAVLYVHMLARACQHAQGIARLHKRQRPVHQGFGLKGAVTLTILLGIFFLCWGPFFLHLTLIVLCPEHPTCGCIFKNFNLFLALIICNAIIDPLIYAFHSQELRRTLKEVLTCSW

For `CC(=O)N[C@@H](Cc1c[nH]cn1)C(=O)N[C@H](Cc1ccccc1)C(=O)N[C@H](CCCN=C(N)N)C(=O)N[C@@H](Cc1c[nH]c2ccccc12)C(N)=O`, the pIC50 in assay [1], in assay [3] and in assay [4] was under 5.00 in each case. The pEC50 in assay [2] was 5.00.

Turning to `CC(=O)N[C@@H](Cc1cnc[nH]1)C(=O)N[C@H](Cc1ccccc1)C(=O)N[C@@H](CCCNC(=N)N)C(=O)N[C@@H](Cc1c[nH]c2ccccc12)C(N)=O`, the pIC50 in assay [1] was under 5.00; in assay [3], under 5.00; in assay [4], 6.21. The pEC50 was 6.70 in assay [2] and 6.64 in assay [5].

`CC(=O)N[C@@H](Cc1c[nH]cn1)C(=O)N[C@@H](Cc1ccccc1)C(=O)N[C@@H](CCCN=C(N)N)C(=O)N[C@H](Cc1c[nH]c2ccccc12)C(N)=O`: the pIC50 in assay [1] is under 5.00; in assay [3] it was under 5.00; in assay [4], 5.20. For the same compound, the pEC50 in assay [2] was 5.70; in assay [5], 5.85.

With `CC(=O)N[C@H](Cc1ccccc1)C(=O)N[C@H](CCCN=C(N)N)C(=O)N[C@@H](Cc1c[nH]c2ccccc12)C(N)=O`, the pIC50 in assay [6], in assay [1], in assay [3] and in assay [4] was under 5.00 throughout. The compound further showed a negative logarithm of the EC50 (pEC50) in assay [2] of 5.26.

With `CC(=O)N[C@@H](Cc1c[nH]cn1)C(=O)N[C@H](Cc1ccccc1)C(=O)N[C@H](CCCN=C(N)N)C(=O)N[C@H](Cc1c[nH]c2ccccc12)C(N)=O`, the pIC50 in assay [1], in assay [3] and in assay [4] was under 5.00 in each case. The pEC50 in assay [2] was 5.72.

Take `CC(=O)NCC(=O)N[C@H](Cc1ccccc1)C(=O)N[C@@H](CCCN=C(N)N)C(=O)N[C@H](Cc1c[nH]c2ccccc12)C(N)=O`: the pIC50 in assay [6], in assay [1], in assay [3] and in assay [4] was under 5.00 in each case. The compound further had a pEC50 in assay [2] of 5.38.

For `CC(=O)N[C@H](Cc1ccccc1)C(=O)N[C@@H](CCCN=C(N)N)C(=O)N[C@@H](Cc1c[nH]c2ccccc12)C(N)=O`, the pIC50 was 5.68 in assay [6], under 5.00 in assay [1], under 5.00 in assay [3] and under 5.00 in assay [4]. In addition, the pEC50 in assay [7] is 4.52.

As for `CC(=O)N[C@H](Cc1ccccc1)C(=O)N[C@@H](CCCNC(=N)N)C(=O)N[C@H](Cc1c[nH]c2ccccc12)C(N)=O`, the pIC50 in assay [6] is 5.04; in assay [1] it was under 5.00; in assay [3], under 5.00; in assay [4] it was under 5.00. The compound further showed a pEC50 in assay [7] of 5.82.

As for `CC(=O)N[C@@H](Cc1ccccc1)C(=O)N[C@H](CCCN=C(N)N)C(=O)N[C@H](Cc1c[nH]c2ccccc12)C(N)=O`, the pIC50 in assay [6], in assay [1], in assay [3] and in assay [4] was under 5.00 throughout. The negative-log EC50 (pEC50) in assay [2] was under 4.00.

As for `CC(=O)N[C@H](Cc1ccccc1)C(=O)N[C@H](CCCNC(=N)N)C(=O)N[C@H](Cc1c[nH]c2ccccc12)C(N)=O`, the pIC50 in assay [6], in assay [1], in assay [3] and in assay [4] was under 5.00 each time. The same compound gave a pEC50 in assay [2] of under 4.00.

With `CC(=O)N[C@@H](Cc1ccccc1)C(=O)N[C@@H](CCCNC(=N)N)C(=O)N[C@H](Cc1c[nH]c2ccccc12)C(N)=O`, the pIC50 in assay [6], in assay [1], in assay [3] and in assay [4] was under 5.00 throughout. This compound also gave a pEC50 in assay [2] of under 4.00.

In general, pIC50 refers to the negative decadic logarithm of the IC50, by convention in mol/L. A low value points to a high IC50. Usually pEC50 stands for the EC50 on a negative log10 scale, so that one unit is a factor of ten. Read a low pEC50 as a large EC50.
